Data reported in article PMC8870237, “Improved Multimodal Tumor Necrosis Imaging with IRDye800CW-DOTA Conjugated to an Albumin-Binding Domain” (Cancers, 2022).
“Also recorded” adds a separate entry of the source.

Assays:
[1] = n-octanol/PBS distribution coefficient (LogD7.4); assay type: physicochemical; conditions: LogD7.4, indium-111 labeled material, triplicates
Protocol: The [^111In]1, [^111In]2, and [^111In]3 were labeled at a molar activity of 10 MBq/nmol and 100 kBq was added to n-octanol (500 µL) and PBS (500 µL). After vigorous vortexing, the vial was centrifuged at 16.1 × 1000 g for 3 min. The octanol phase was carefully pipetted into a new vial and both layers were centrifuged again. From both the organic and the aqueous layers, samples (10 µL) were taken out and counted for activity on a γ-counter. LogD values were calculated as follows: Log ([NACA]n-octanol/[NACA]PBS). These experiments were performed as triplicates.

[2] = In vitro protein binding in mouse serum (ultrafiltration); assay type: in vitro ADME; conditions: 37 °C, 30 min, indium-111 labeled material
Protocol: Protein binding of the NACAs was determined as reported elsewhere. The NACAs were labeled with indium-111 (50 MBq/nmol), added to mouse serum (1 MBq/500 µL), and incubated at 37 °C for 30 min. Four portions of 10 µL were taken and counted on a γ-counter. The remaining serum was transferred to a centifree ultrafiltration device (4104 centrifugal filter units; Millipore, 30 kDa nominal molecular weight limit, methylcellulose micro partition membranes equilibrated once with 5% v/v Tween-80 in phosphate-buffered saline (PBS) and then trice with PBS) and centrifuged at 7.0 × 1000 g for 40 min at room temperature. Four portions of 10 µL from the filtrates were counted for radioactivity in a γ-counter. The amount of plasma-bound radioligand was calculated as the fraction between the radioactivity measured in the filtrate portions relative to the corresponding loading solution (set to 100%).

4T1-Luc2 cells [3] = test: In vitro dead/alive cell binding assay (fluorescence and γ-counting); assay type: cell-based, mouse; conditions: 100 nM, EtOH-killed or alive 4T1-Luc2 cells; for dead/alive cell binding, fluorescence signal: non-radioactive precursors, 30 min, 37 °C, 800 nm; for dead/alive cell binding, radioactivity: indium-111 labeled, 2.5 MBq/nmol, γ-counting
Protocol: The 4T1-Luc2 cells were cultured in RPMI-1640 medium containing 10% fetal bovine, penicillin (100 U/mL), and streptomycin ([…]) 37 °C under a humidified atmosphere with 5% CO2. The cells were seeded in 24 well plates (1 × 10^5 cells per well). The next day, the cells were killed with EtOH (70%, 50 μL) or kept alive and incubated for 30 min at 37 °C with 100 nM of the NACAs in culturing medium. The plate was then imaged on an Odyssey (Li-Cor, 800 nm laser intensity 5.0).
Similarly, these killed and alive cells were incubated with the indium-111 labeled NACAs (100 nM, 2.5 MBq/nmol) in culturing medium. The cells were washed with PBS and collected with NaOH (1.0 M) for γ-counting. These experiments were performed as triplicates.

MCF7-Luc2 tumors = test: Tumor uptake in doxorubicin- or saline-treated MCF7-Luc2 tumor-bearing mice; assay type: in vivo, mouse; conditions: 1 h p.i., ±SEM
Protocol: (§1) The quadruple modality imaging procedure is illustrated in Figure S21. The tumor-bearing mice were injected with [^111In]3 (20 MBq, 2 nmol) in 200 µL PBS into the tail vein. The following day, the mice fasted for four hours before they were injected with [^18F]FDG (10 MBq, 200 µL) in PBS. At 24 h p.i. of [^111In]3 and 1 h p.i. of [^18F]FDG, FLI imaging was performed with a 730 nm excitation and 760 nm emission filter for 400 ms with 4 × 4 binning. Then, the mice received an intraperitoneal injection of D-luciferin (150 mg/kg) maintaining the position of the mice in the bed unaltered. During the onset of the bioluminescence signal, PET/SPECT imaging was performed of the tumors with a 2 cm axial field of view over a total scan time of 30 min, followed by a 2 min full-body CT. Finally, BLI imaging was performed with an open filter for 400 ms with 4 × 4 binning. Imaging was performed under isoflurane anesthesia whilst maintaining the body temperature constant.
Six mice were inoculated bilaterally with MCF7-Luc2 cells (3.0 × 10^6), suspended in 30 µL PBS:Matrigel (1:1; v/v). On days 14, 16, and 18 after inoculation, the tumor-bearing mice received either doxorubicin (5 mg/kg, Janssen Pharmaceuticals, Beerse, Belgium) or a saline solution via i.v. injection. On days 21 and 22 after inoculation, the mice underwent the FLI, BLI, and PET/SPECT/CT imaging procedure (vide supra).
(§2) After the final imaging experiments, the mice were sacrificed by cervical dislocation, tumors and organs were collected, weighted, and activity was accurately quantified by γ-counting to determine radioactivity uptake in the percentage of injected dose per gram (%ID/g). After γ-counting, the tumors were frozen in liquid nitrogen and stored at −80 °C overnight. Adjacent cryosections (10 µm) were prepared of the tumor centers for autoradiography. The sections were stored at −20 °C for the radioactivity to decay, before 800 nm fluorescence imaging and histochemical dead cell staining.

EMT6-Luc2 tumors = test: Tumor uptake in EMT6-Luc2 tumor-bearing mice; assay type: in vivo, mouse; conditions: untreated, 1 h p.i., ±SEM
Protocol: as §1, with “constant. […]” for “constant.”
as §2, with “After γ-counting, the tumors were frozen in liquid nitrogen and stored at −80 °C overnight. Adjacent cryosections (10 µm) were prepared of the tumor centers for autoradiography.” left out

4T1-Luc2 cells [4] = test: Fluorescence microscopy of dead and alive cells; assay type: cell-based, mouse; conditions: unlabeled, 100 nM, 30 min, 37 °C
Protocol: The 4T1-Luc2 cells were seeded on 10 mm diameter coverslips in 24 well plates (10^5 cells per well). The cells were kept alive or killed with 50 µL EtOH (70%) and incubated in culturing medium with or without unlabeled 3 (100 nM) for 30 min at 37 °C. The cells were gently washed with PBS three times and incubated with Calcein-AM (CAM, 2 µM) and propidium iodide (PI, 4 µM) in PBS for 30 min at 37 °C [24]. Then, the cells were fixated with PFA (4% in PBS, 10 min, RT) and nuclei were stained with DAPI (Sigma-Aldrich, 1:1000 in PBS, 5 min). After final washing with PBS, the coverslips were removed from the well plate and mounted on a microscope slide for fluorescence microscope imaging at 20× magnification.

4T1-Luc2 tumors = tested on: 4T1-Luc2 tumors; set-up: method as in PMID 32514888; conditions: comparison value; cited from earlier work
[5] = In vivo stability (radio-HPLC of urine 1 h after injection); set-up: species or system mouse; conditions: mice, i.v., 1 h p.i.
Text: After an hour, the mice were sacrificed by cervical dislocation and blood and urine were collected, which were frozen in liquid nitrogen directly after extraction. […] The supernatant was collected and analyzed by radio-HPLC (Method-D).

Row | Structure (SMILES) | LogD [1] | Protein Binding [2] | dead/alive cell binding, fluorescence signal (4T1-Luc2 cells [3]) | also measured
1 | CC1(C)C(=CC=C2CCCC(C=CC3=[N+](CCCCCC(=O)NCCCCC(NC(=O)C(CCCCNC(=O)CCCc4ccc(I)cc4)NC(=O)CN4CCN(CC(=O)O)CCN(CC(=O)O)CCN(CC(=O)O)CC4)C(N)=O)c4ccc(S(=O)(=O)O)cc4C3(C)C)=C2Oc2ccc(S(=O)(=O)O)cc2)N(CCCCS(=O)(=O)O)c2ccc(S(=O)(=O)O)cc21 (stereo not drawn) [Compound 2] | −2.47 ± 0.01 | 95 ± 0.1% | considerably stronger binding to the dead cells than compound 1 | –
2 | CC1(C)C(=CC=C2CCCC(C=CC3=[N+](CCCCCC(=O)NCCOCCOCCOCCOCCNC(=O)CN4CCN(CC(=O)O)CCN(CC(=O)O)CCN(CC(=O)O)CC4)c4ccc(S(=O)(=O)O)cc4C3(C)C)=C2Oc2ccc(S(=O)(=O)O)cc2)N(CCCCS(=O)(=O)O)c2ccc(S(=O)(=O)O)cc21 [Compound 1] | −3.58 ± 0.07 | 70 ± 0.9% | specifically bound to dead cells and not to live cells | –
3 | OC[C@H]1OC(O)[C@H]([18F])[C@@H](O)[C@@H]1O (stereo partly drawn) [[^18F]FDG, reference compound] | – | – | – | tumor uptake of [18F]FDG (MCF7-Luc2 tumors; after doxorubicin treatment (5 mg/kg i.v., 3 injections)): 1.79 ± 0.11 %ID/g; tumor uptake of [18F]FDG (MCF7-Luc2 tumors; after saline treatment (control)): 3.02 ± 0.51 %ID/g; tumor uptake of [18F]FDG (EMT6-Luc2 tumors): 4.13 ± 0.58 %ID/g
4 | CC1(C)C(/C=C/C2=C(Oc3ccc(S(=O)(=O)O)cc3)C(=C/C=C3\N(CCCCS(=O)(=O)O)c4ccc(S(=O)(=O)O)cc4C3(C)C)/CCC2)=[N+](CCCCCC(=O)NCCCC[C@@H](NC(=O)CCCc2ccc(I)cc2)C(=O)NCc2ccc(CNC(=O)CN3CCN(CC(=O)O)CCN(CC(=O)O)CCN(CC(=O)O)CC3)cc2)c2ccc(S(=O)(=O)O)cc21 [Compound 3] | −2.73 ± 0.14 | 94 ± 0.2% | considerably stronger binding to the dead cells than compound 1 | NIR-fluorescence binding to dead and alive cells (microscopy) (4T1-Luc2 cells [4]): distinct NIR-fluorescent signal was observed from dead cells; also recorded: binds to dead cells and not to alive cells
5 | CC1(C)C(=CC=C2CCCC(C=CC3=[N+](CCCCCC(=O)NCCOCCOCCOCCOCCNC(=O)CN4CCN(CC(=O)[O-])CCN(CC(=O)[O-])CCN(CC(=O)[O-])CC4)c4ccc(S(=O)(=O)O)cc4C3(C)C)=C2Oc2ccc(S(=O)(=O)O)cc2)N(CCCCS(=O)(=O)O)c2ccc(S(=O)(=O)O)cc21.[111In+3] [[^111In]1, [^111In]In-DOTA-PEG4-IRDye800CW] | – | 70% | – | radioactive tumor uptake in the SPECT images (4T1-Luc2 tumors): 0.26 ± 0.05 %ID/mL
6 | CC1(C)C(=CC=C2CCCC(C=CC3=[N+](CCCCCC(=O)NCCCC[C@H](NC(=O)[C@H](CCCCNC(=O)CCCc4ccc(I)cc4)NC(=O)CN4CCN(CC(=O)[O-])CCN(CC(=O)[O-])CCN(CC(=O)[O-])CC4)C(N)=O)c4ccc(S(=O)(=O)O)cc4C3(C)C)=C2Oc2ccc(S(=O)(=O)O)cc2)N(CCCCS(=O)(=O)O)c2ccc(S(=O)(=O)O)cc21.[111In+3] [[^111In]2] | – | – | – | dead/alive cell binding, radioactivity (4T1-Luc2 cells [3]): increased as compared to [^111In]1; in vivo stability [5]: decomposed after an hour
7 | NCCCC[C@H](NC(=O)CCCc1ccc(I)cc1)C(=O)NCc1ccc(CNC(=O)CN2CCN(CC(=O)[O-])CCN(CC(=O)[O-])CCN(CC(=O)[O-])CC2)cc1.[111In+3] [[^111In]8] | – | – | – | dead/alive cell binding, radioactivity (4T1-Luc2 cells [3]): did not show considerable dead cell binding
